# In patent publication US20260206761A1, “HETEROARYL-TRIAZOLE COMPOUNDS AS PESTICIDES” (Bayer Aktiengesellschaft, priority 2019, published 2026):
# Assays:
# Type in all cases: in vivo
# [1] = tested on: adult engorged female ticks (Rhipicephalus microplus); test: Rhipicephalus (Boophilus) microplus injection test; settings: 168 h, egg deposition after 7 days, read-out: activity (efficacy: infertile eggs); for pest or weed control at 4 pg: application rate 4 pg/animal; for pest or weed control at 0.02 mg: application rate 20 μg/animal
# How it was run: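 Efficacy is scored from egg fertility, with 100% meaning every egg infertile and 0% every egg fertile. Five engorged females per test received 1 μL DMSO solution abdominally. Eggs of unclear fertility were kept until hatching, about 42 days.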
# [2] = tested on: adult brown dog ticks (Rhipicephalus sanguineus); test: Rhipicephalus sanguineus in-vitro contact test, adult brown dog ticks; settings: after 48 hours, read-out: activity (efficacy: ticks dead or moribund); for pest or weed control at 100 g/ha: application rate 1 pg/cm^2 (=100 g/ha); for pest or weed control at 5 µg/cm2, 500 g/ha: application rate 5 μg/cm^2 (=500 g/ha)
# How it was run: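 Compound in acetone was coated onto inner walls of glass tubes by rotation (2 h, 30 rpm); 900 ppm gives 5 μg/cm^2. After drying, 5-10 adult ticks were enclosed per tube at room temperature; after 48 h, heat-escape test at 45-50° C scored dead/moribund ticks as % efficacy.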
# [3] = tested on: larvae of the banded cucumber beetle (Diabrotica balteata); test: Diabrotica balteata spray test; settings: 168 h, after 7 days, read-out: activity (efficacy: seedlings grown); for pest or weed control at 100 g/ha: application rate 100 g/ha (=32 pg/well); for pest or weed control at 500 g/ha: application rate 500 g/ha (=160 pg/well)
# How it was run: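 Wheat seedlings, germinated 1 day on agar (5 seeds/well), sprayed with active compound in acetone/DMF diluted in water containing 1000 ppm emulsifier, then infested with 10-20 D. balteata larvae. Efficacy (%) scored after 7 days: 100% = seedlings grown as untreated uninfested control, 0% = no seedlings grown.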
# [4] = tested on: Anopheles funestus strain FUMOZ-R; test: Anopheles funestus test (ANPHFU surface treatment & contact assay); settings: 24 hours after contact, read-out: efficacy (mortality); for mortality at 4 mg/m2: surface concentration 4 mg/m^2, exposure 30 minutes; for mortality at 20 mg/m2: surface concentration 20 mg/m^2, exposure 30 minutes
# How it was run: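 Compound dissolved in acetone at 2 mg/ml with 2000 ppm RME, pipetted onto glazed tile; acetone evaporated. Adult FUMOZ-R mosquitoes exposed to dried surface for 30 min. Percent mortality scored 24 h after contact.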
# [5] = tested on: Musca domestica strain WHO-N; test: Musca domestica test (MUSCDO surface treatment & contact assay); settings: 24 hours after contact, read-out: efficacy (mortality); for mortality at 20 mg/m2: surface concentration 20 mg/m^2, exposure 30 minutes; for mortality at 4 mg/m2: surface concentration 4 mg/m^2, exposure 30 minutes
# How it was run: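 Compound dissolved at 2 mg/ml in acetone with 2000 ppm rapeseed oil methyl ester and pipetted onto a glazed tile. After the acetone evaporated, adult WHO-N flies were exposed to the dried surface for 30 min, with % mortality scored 24 h after contact.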
# [6] = tested on: Culex quinquefasciatus strain P00; test: Culex quinquefasciatus test (CULXFA surface treatment & contact assay); settings: 24 hours after contact, read-out: efficacy (mortality); for mortality at 4 mg/m2: surface concentration 4 mg/m^2, exposure 30 minutes; for mortality at 20 mg/m2: surface concentration 20 mg/m^2, exposure 30 minutes
# How it was run: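 Compound in acetone (2 mg/ml) with 2000 ppm rapeseed oil methyl ester, dried onto glazed tile. Adult mosquitoes exposed to the treated surface for 30 min. Percent mortality scored 24 h after contact.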
Compound,pest or weed control at 4 pg [1],pest or weed control at 0.02 mg [1],pest or weed control at 100 g/ha [2],"pest or weed control at 5 µg/cm2, 500 g/ha [2]",pest or weed control at 100 g/ha [3],mortality at 4 mg/m2 [4],mortality at 20 mg/m2 [4],mortality at 20 mg/m2 [5],mortality at 4 mg/m2 [6],mortality at 20 mg/m2 [6],mortality at 4 mg/m2 [5],pest or weed control at 500 g/ha [3]
CC(C)c1nc([C@H](C)NC(=O)c2cc(OC(F)(F)F)cc(C3CC3)c2)n(-c2ccc(C#N)cn2)n1 [I-23],100%,100%,100%,100%,80%,80 to 100%,80 to 100%,80 to 100%,–,–,–,–
C[C@H](NC(=O)c1cc(Cl)cc(S(=O)(=O)C2CC2)c1)c1nc(C2CC2)nn1-c1ncc(Cl)cn1 [I-25],100%,100%,–,–,100%,–,–,80 to 100%,80 to 100%,80 to 100%,80 to 100%,–
CC(NC(=O)c1cc(C(F)(F)F)cc(S(C)(=O)=O)c1)c1nc(Cl)nn1-c1ncccn1 (stereo not shown) [I-30],100%,100%,100%,100%,100%,80 to 100%,80 to 100%,80 to 100%,–,–,–,–
CSc1cc(C#N)cc(C(=O)N[C@@H](C)c2ncnn2-c2ccc(C#N)cn2)c1 [II-3],100%,100%,–,–,100%,–,80 to 100%,–,80 to 100%,80 to 100%,–,100%
Cc1nc([C@H](C)NC(=O)c2cc(C(F)(F)F)n(C)n2)n(-c2ccc(C#N)cn2)n1 [II-7],100%,100%,–,–,100%,80 to 100%,–,80 to 100%,–,80 to 100%,–,100%
Cc1nc([C@H](C)NC(=O)c2cc(Cl)nn2C)n(-c2ccc(C#N)cn2)n1 [II-11],100%,100%,80%,80%,100%,80 to 100%,80 to 100%,–,80 to 100%,–,80 to 100%,100%
C[C@H](NC(=O)c1cc(C#N)cc([S+](C)[O-])c1)c1ncnn1-c1ccc(C#N)cn1 (stereo partly shown) [II-12],100%,100%,–,–,100%,80 to 100%,80 to 100%,–,80 to 100%,80 to 100%,–,100%
C[C@H](NC(=O)c1cc(C(F)(F)F)cc(S(C)(=O)=O)c1)c1ncnn1-c1ccc(Cl)cn1 [II-16],100%,100%,–,–,100%,80 to 100%,–,–,80 to 100%,–,–,100%
C[C@H](NC(=O)c1cc(Cl)cc(S(=O)(=O)C(F)F)c1)c1ncnn1-c1ccc(C#N)cn1 [II-17],100%,100%,–,–,100%,80 to 100%,–,–,80 to 100%,80 to 100%,–,100%
"C[C@H](NC(=O)c1cc(Cl)cc([S+]([O-])C(F)F)c1)c1ncnn1-c1ccc(C#N)cn1 (stereo partly drawn) [II-18, 3-chloro-N-{(1S)-1-[1-(5-cyanopyridin-2-yl)-1H-1,2,4-triazol-5-yl]ethyl}-5-[(difluoro-methyl)sulfinyl]benzamide]",100%,100%,–,–,100%,–,–,80 to 100%,80 to 100%,80 to 100%,–,100%
C[C@H](NC(=O)c1cc(OC(F)(F)F)cc(C2CC2)c1)c1ncnn1-c1ccccn1 [II-22],100%,100%,–,–,100%,–,–,80 to 100%,–,80 to 100%,80 to 100%,100%
C[C@H](NC(=O)c1cc(C2CC2)cc(C(F)(F)F)c1)c1ncnn1-c1ccc(C#N)cn1 [II-26],100%,100%,100%,100%,100%,–,–,80 to 100%,–,–,80 to 100%,100%
C[C@H](NC(=O)c1cc(C#N)cc(S(C)(=O)=O)c1)c1ncnn1-c1ccc(Cl)cn1 [II-29],100%,100%,80%,100%,–,–,–,–,80 to 100%,–,–,100%
C[C@H](NC(=O)c1cc(C(F)(F)F)cc(S(=O)(=O)C2CC2)c1)c1ncnn1-c1ccc(C#N)cn1 [II-32],100%,100%,100%,100%,100%,–,–,80 to 100%,80 to 100%,80 to 100%,80 to 100%,100%
Cc1nc([C@H](C)NC(=O)c2cc(Cl)cc(S(=O)(=O)C(F)F)c2)n(-c2ccc(C#N)cn2)n1 [II-35],100%,100%,–,80%,100%,–,–,80 to 100%,–,–,80 to 100%,100%
Cc1nc([C@H](C)NC(=O)c2cc(Cl)cc(S(=O)(=O)C(F)F)c2)n(-c2ccc(Cl)cn2)n1 [II-36],100%,100%,–,80%,100%,–,–,–,–,–,80 to 100%,100%
Cc1nc([C@H](C)NC(=O)c2cc(Cl)cc(C3(C#N)CC3)c2)n(-c2ccc(C#N)cn2)n1 [II-38],100%,100%,100%,100%,100%,–,–,80 to 100%,–,–,80 to 100%,–
C[C@H](NC(=O)c1cc(Cl)cc(S(=O)(=O)C(F)(F)F)c1)c1ncnn1-c1ncc(OC(F)F)cn1 [II-43],100%,100%,–,–,100%,–,–,–,80 to 100%,–,–,–
Cc1nc([C@H](C)NC(=O)c2cc(C(F)(F)F)cc(C3(C#N)CC3)c2)n(-c2ccc(Cl)cn2)n1 [II-50],100%,100%,100%,100%,100%,–,–,80 to 100%,–,–,–,–
Cc1nc([C@H](C)NC(=O)c2cc(C(F)(F)F)cc(S(C)(=O)=O)c2)n(-c2ccc(C#N)cn2)n1 [II-52],100%,–,100%,100%,100%,–,–,80 to 100%,–,–,80 to 100%,–
C[C@H](NC(=O)c1cc(C#N)cc(C2CC2)c1)c1ncnn1-c1ncccn1 [II-54],–,–,100%,–,100%,–,80 to 100%,–,–,–,–,–
